Measurements: ChEMBL document CHEMBL1147813, “Design, molecular modeling, synthesis, and anti-HIV-1 activity of new indolyl aryl sulfones. Novel derivatives of the indole-2-carboxamide” (J Med Chem, 2006)

How the values were obtained:
C8166 [1] = assay: Selectivity index, TC50 for C8166 cell line/EC50 for HIV1; type: functional
[2] = test system: Human immunodeficiency virus 1; assay: Antiviral activity against HIV1 in C8166 cell line; type: functional, organism-based; conditions: Human immunodeficiency virus 1, C8166
[3] = test system: Human immunodeficiency virus 1; assay: Antiviral activity against HIV1 in MT4 cell line; type: functional, organism-based; conditions: Human immunodeficiency virus 1, MT4
[4] = test system: Human immunodeficiency virus 1; assay: Antiviral activity against HIV1 Y181C mutant in MT4 cell line; type: functional, organism-based; conditions: Human immunodeficiency virus 1, MT4
MT4 [5] = assay: Selectivity index, TC50 for MT4 cell line/EC50 for HIV1; type: functional
[6] = test system: Human immunodeficiency virus 1; assay: Antiviral activity against HIV1 K103N-Y181C mutant in MT4 cell line; type: functional, organism-based; conditions: Human immunodeficiency virus 1, MT4
MT4 [7] = assay: Cytotoxicity against MT4 cell line by MTT assay; type: functional; conditions: Homo sapiens, read-out: TC50 (the source's name)
C8166 [8] = assay: Antiproliferative activity against C8166 cell line by MTT assay; type: functional; conditions: Homo sapiens, read-out: TC50 (the source's name)
[9] = test system: Human immunodeficiency virus 1; assay: Antiviral activity against HIV1 3B in MT4 cell line; type: functional, organism-based; conditions: Human immunodeficiency virus 1, 3B
[10] = test system: Human immunodeficiency virus 1; assay: Antiviral activity against HIV1; type: functional, organism-based
Macrophage [11] = assay: Selectivity index, TC50 for human macrophages/EC50 for HIV1 […]; type: functional
[12] = test system: Human immunodeficiency virus; assay: Activity against HIV-AB1 assessed by inhibition of p24 production in human lymphocytes; type: functional, organism-based; conditions: Human immunodeficiency virus 1
Macrophage [13] = assay: Cytotoxicity against human macrophages; type: functional; conditions: read-out: TC50 (the source's name)
Lymphocyte [14] = assay: Selectivity index, TC50 for human lymphocytes/EC50 for HIV1 3B; type: functional
[15] = test system: Human immunodeficiency virus 1; assay: Activity against HIV1 3B assessed by inhibition of p24 production in human lymphocytes; type: functional, organism-based; conditions: Human immunodeficiency virus 1, 3B
[16] = test system: Human immunodeficiency virus; assay: Activity against HIV-112 assessed by inhibition of p24 production in human lymphocytes; type: functional, organism-based; conditions: Human immunodeficiency virus 1
Lymphocyte [17] = assay: Selectivity index, TC50 for human lymphocytes/EC50 for HIV-AB1; type: functional
Lymphocyte [18] = assay: Cytotoxicity against human lymphocytes; type: functional; conditions: read-out: TC50 (the source's name)
Lymphocyte [19] = assay: Selectivity index, TC50 for human lymphocytes/EC50 for HIV-112; type: functional

| Structure (SMILES) | EC50 [10] [nM] | further results |
| --- | --- | --- |
| Cc1cc(C)cc(S(=O)(=O)c2c(C(=O)NCC(N)=O)[nH]c3ccc(Cl)cc23)c1 |  | Selectivity index (C8166 [1]): >5000; EC50 [2]: 20 nM; EC50 ([3]; read-out: EC50): 10 nM; EC50 [4]: 50 nM; Selectivity index (MT4 [5]): 4500; EC50 [6]: 1200 nM; CC50 (MT4 [7]): 45000 nM; CC50 (C8166 [8]): > 100000 nM; EC50 [9]: 10 nM |
| Cc1cc(C)cc(S(=O)(=O)c2c(C(=O)NCC(=O)NN)[nH]c3ccc(Cl)cc23)c1 |  | Selectivity index (C8166 [1]): >5000; EC50 [2]: 20 nM; EC50 ([3]; read-out: EC50): 20 nM; EC50 [4]: 60 nM; Selectivity index (MT4 [5]): >5000; EC50 [6]: 2600 nM; CC50 (MT4 [7]): > 100000 nM; CC50 (C8166 [8]): > 100000 nM; EC50 [9]: 20 nM |
| Cc1cc(C)cc(S(=O)(=O)c2c(C(=O)NNCCO)[nH]c3ccc(Cl)cc23)c1 | 1 |  |
| Cc1ccc(Sc2c(C(=O)NNCCO)[nH]c3ccc(Cl)cc23)c(C)c1 | 1200 |  |
| O=C(NCCO)c1[nH]c2ccc(Cl)cc2c1Sc1ccccc1 | 40 |  |
| Cc1cccc(S(=O)(=O)c2c(C(=O)NNCCO)[nH]c3ccc(Cl)cc23)c1 | 7 |  |
| CCOC(=O)c1cc2cc(Cl)ccc2n1S(=O)(=O)c1cc(Cl)ccc1N | 8300 |  |
| Nc1ccccc1-n1ccc2ccccc21 | 4960 |  |
| CCOC(=O)c1cc2cc(Cl)ccc2n1S(=O)(=O)c1ccc(Cl)cc1 | > 200000 |  |
| Cc1ccccc1S(=O)(=O)c1c(C(=O)NCCO)[nH]c2ccc(Cl)cc12 | 31 |  |
| Cc1ccccc1Sc1c(C(=O)NNCCO)[nH]c2ccc(Cl)cc12 | 100 |  |
| O=[N+]([O-])c1ccc(Cl)cc1-n1ccc2ccccc21 | 5400 |  |
| Cc1cc(C)cc(S(=O)(=O)c2c(C(=O)NN3CCOC3=O)[nH]c3ccc(Cl)cc23)c1 |  | Selectivity index (C8166 [1]): >33333; EC50 [2]: 3 nM; Selectivity index (Macrophage [11]): >50000; EC50 [12]: 20 nM; CC50 (Macrophage [13]): > 100000 nM; EC50 ([3]; read-out: EC50): 0.9 nM; EC50 ([3]; read-out: Log EC50 (converted)): 0.899 nM; EC50 [4]: 10 nM; Selectivity index (MT4 [5]): 111111; EC50 [6]: 900 nM; Selectivity index (Lymphocyte [14]): >10000; EC50 [15]: 10 nM; EC50 [16]: 30 nM; CC50 (MT4 [7]): 100000 nM; CC50 (C8166 [8]): > 100000 nM; Selectivity index (Lymphocyte [17]): >5000; CC50 (Lymphocyte [18]): > 100000 nM; Selectivity index (Lymphocyte [19]): >3333; EC50 [9]: 1 nM |
| Cc1ccccc1Sc1c(C(=O)NCCO)[nH]c2ccc(Cl)cc12 | 50 |  |
| CCOC(=O)c1cn(S(=O)(=O)c2ccccc2)c2ccc(Cl)cc12 | > 42000 |  |
| Cc1ccccc1S(=O)(=O)c1c(C(=O)NNCCO)[nH]c2ccc(Cl)cc12 | 50 |  |
| Nc1ccc(Cl)cc1-n1ccc2ccccc21 | 6000 |  |
| Cc1cccc(Sc2c(C(=O)NCCO)[nH]c3ccc(Cl)cc23)c1C | 100 |  |
| Cc1cc(C)cc(Sc2c(C(=O)NNCCO)[nH]c3ccc(Cl)cc23)c1 | 30 |  |
| Cc1ccc(S(=O)(=O)c2c(C(=O)NNCCO)[nH]c3ccc(Cl)cc23)cc1 | 40 |  |
| O=C(NCCO)c1[nH]c2ccc(Cl)cc2c1S(=O)(=O)c1ccccc1 | 1 |  |
| NC(=O)c1cc2cc(Cl)ccc2n1S(=O)(=O)c1ccccc1 | 66600 |  |

| Structure (SMILES) | EC50 [10] [nM] | further results |
| --- | --- | --- |
| Nc1ccc(Cl)c(-n2ccc3ccccc32)c1 | 3820 |  |
| Nc1cc(Cl)ccc1-n1ccc2ccccc21 | 4130 |  |
| Cc1cc(C)cc(Sc2c(C(=O)NCCO)[nH]c3ccc(Cl)cc23)c1 | 12 |  |
| O=[N+]([O-])c1ccccc1-n1ccc2ccccc21 | 5300 |  |
| CCOC(=O)c1cc2cc(Cl)ccc2n1S(=O)(=O)c1ccccc1 | > 200000 |  |
| O=C(NNCCO)c1[nH]c2ccc(Cl)cc2c1Sc1ccccc1 | 200 |  |
| NC(=O)c1[nH]c2ccc(Cl)cc2c1Sc1ccccc1 | 20 |  |
| CC(C)OC(=O)c1cn(S(=O)(=O)c2ccccc2)c2ccccc12 | > 54000 |  |
| CCOC(=O)c1cn(S(=O)(=O)c2ccccc2)c2ccccc12 | > 32000 |  |
| NNC(=O)c1[nH]c2ccc(Cl)cc2c1S(=O)(=O)c1cc(Cl)ccc1N | 300 |  |
| NC(=O)c1[nH]c2ccccc2c1S(=O)(=O)c1cc(Cl)ccc1N | 300 |  |
| NC(=O)c1[nH]c2ccc(Cl)cc2c1S(=O)(=O)c1cc(Cl)ccc1N | 40 |  |
| Cc1cc(C)cc(Sc2c(C(N)=O)[nH]c3ccc(Cl)cc23)c1 | 6 |  |
| CCOC(=O)c1cc2ccccc2n1S(=O)(=O)c1ccccc1[N+](=O)[O-] | 1800 |  |
| CCOC(=O)c1[nH]c2ccccc2c1Sc1ccccc1 | 1400 |  |
| NNC(=O)c1[nH]c2ccc(Cl)cc2c1Sc1cc(Cl)ccc1N | > 13000 |  |
| CCOC(=O)c1[nH]c2ccccc2c1Sc1cc(Cl)ccc1N | ≥ 200000 |  |
| CC(C)c1ccc(S(=O)(=O)c2c(C(N)=O)[nH]c3ccc(Cl)cc23)cc1 | 80 |  |
| Cc1ccc(S(=O)(=O)c2c(C(N)=O)[nH]c3ccc(Cl)cc23)c(C)c1 | 4 |  |
| Cc1cc(C)cc(S(=O)(=O)c2c(C(=O)NCCO)[nH]c3ccc(Cl)cc23)c1 | 0.8 |  |
| Cc1ccc(S(=O)(=O)c2c(C(=O)NCCO)[nH]c3ccc(Cl)cc23)c(C)c1 | 8 |  |
